The test system of experiment [1] is HepG2 cells derived from human liver cancer. Put plainly: EPO production in HepG2 cells (EPO ELISA of culture supernatant). The conditions noted are these: Homo sapiens; for activity at 3 µM: HepG2, 3 μM test compound, 48 hrs, 4% oxygen, non-stimulated state without compound = 100%, read-out: amount of EPO production, % of control (3 μM); for activity at 10 µM: HepG2, 48 h, final concentration 10 μM, non-stimulated state = 100%, read-out: enhancement of EPO production. It is filed as cell-based. The procedure:
HepG2 cells derived from human liver cancer were inoculated in an amount of 5×10^4 cells per well on a 48-well plate, using minimum essential medium (MEM, Sigma-Aldrich Company) containing 10% bovine fetal serum. On the next day, the medium was exchanged with Dulbecco's modified eagle medium (DMEM (Sigma-Aldrich Company)) containing 10% bovine fetal serum without Phenol Red. Then, a test compound dissolved in DMSO was added thereto to obtain a final concentration of 3 μM or 10 μM, and the amount of medium was adjusted to 400 μL per well. The cells were incubated for 48 hrs in a CO2 incubator in which the oxygen concentration was adjusted to 4%, and then the culture supernatant was collected. The EPO concentration in the culture supernatant was immediately measured using an EPO ELISA kit (Roche Diagnostics GmbH). The method was carried out according to the operation manual.
The amount of EPO production in a non-stimulated state where no compounds were added, was designated as 100%, and the amount of EPO production (% of control) induced by each of the compounds was determined.

For experiment [2], the system named is K562 cells, a human proerythroblast cell line. Put plainly: Hemoglobin production in K562 cells (fluorescence of the porphyrin ring). It is filed as cell-based. The conditions noted are these: Homo sapiens, K562, 144 h; 6 μM test compound, 3 + 3 days incubation; non-stimulated state without compound = 100; read-out: amount of hemoglobin, % of control (6 μM). The procedure:
K562 cells (obtained from ATCC), which is a human proerythroblast cell line, were inoculated at a concentration of 1×10^5 cells/1 mL in each well of a 24-well plate, using complete medium (RPMI-1640 medium containing 10% bovine fetal serum), and 1 μL of a test compound at a 1000-fold concentration was added to each well. Subsequently, the cells were incubated for 3 days in a CO2 incubator (37° C., 5% CO2). The medium was exchanged, and the cells were further incubated for 3 days. The cells were collected and counted. Subsequently, the amount of hemoglobin produced in the cells was determined by adjusting the number of cells to 3×10^5 cells, and measuring the fluorescence of the porphyrin ring. That is, the cells collected by centrifugation were suspended in 500 μL of 2 M oxalic acid, and were heated to boil for 30 minutes. The cells were cooled, and then the fluorescence intensity was measured by using a fluorescence microplate reader (Spectra MAX GeminiEM; Molecular Devices Corp.) ([…]). The amount of hemoglobin in a non-stimulated state where no compound was added was designated as 100-, and the amount of hemoglobin (% of control) produced as induced by each of the compounds was determined.

For `CC(=O)N1c2ccc(C(=O)NC(=O)c3ccccc3)cc2C(Nc2ccc(N3CCOCC3)cc2)CC1C` (stereo not shown) [Compound 166, 1-Acetyl-N-benzoyl-2-methyl-4-[(4-morpholinophenyl)-amino]-1,2,3,4-tetrahydroquinoline-6-carboxamide], in experiment [1], the activity at 3 µM came out at 185%. Further, the activity at 6 µM in experiment [2] came to 282%.
On to `CCOC(=O)c1ccc2c(c1)C(Nc1ccc(-c3ncco3)cc1)CC(C)N2C(C)=O` (stereo not shown) [Compound 167, Ethyl 1-Acetyl-2-methyl-4-{[4-(oxazol-2-yl)phenyl]-amino}-1,2,3,4-tetrahydroquinoline-6-carboxylate], for which the activity at 10 µM in experiment [1] is 142%. Besides, the activity at 6 µM in experiment [2] was determined as 227%.
`CC(=O)N1c2ccc(C(=O)O)cc2C(Nc2ccc(-c3ncco3)cc2)CC1C` (stereo not shown) [Compound 168, 1-Acetyl-2-methyl-4-{[4-(oxazol-2-yl)phenyl]-amino}-1,2,3,4-tetrahydroquinoline-6-carboxylic acid]: the activity at 3 µM in experiment [1] turned out to be 144%. Further, the activity at 6 µM in experiment [2] was 204%.
`CC(=O)N1c2ccc(C(N)=O)cc2C(Nc2ccc(-c3ncco3)cc2)CC1C` (stereo not shown) [Compound 169, 1-Acetyl-2-methyl-4-{[4-(oxazol-2-yl)phenyl]amino}-1,2,3,4-tetrahydroquinoline-6-carboxamide]: the activity at 10 µM in experiment [1] amounted to 120%. Further, the activity at 6 µM in experiment [2] is 243%.
With `CCOC(=O)c1ccc2c(c1)C(Nc1ccc(-c3cnns3)cc1)CC(C)N2C(C)=O` (stereo not shown) [Compound 171, Ethyl 1-Acetyl-2-methyl-4-{[4-(1,2,3-thiadiazol-5-yl)-phenyl]amino}-1,2,3,4-tetrahydroquinoline-6-carboxylate], in experiment [1], the activity at 3 µM stood at 333%. Further, in experiment [2], the activity at 6 µM came out at 243%.
Take `CC(=O)N1c2ccc(C(=O)O)cc2C(Nc2ccc(-c3cnns3)cc2)CC1C` (stereo not shown) [Compound 172, 1-Acetyl-2-methyl-4-{[4-(1,2,3-thiadiazol-5-yl)-phenyl]amino}-1,2,3,4-tetrahydroquinoline-6-carboxylic acid]: in experiment [1], the activity at 3 µM was 152%. For the same molecule, the activity at 6 µM in experiment [2] amounted to 168%.
The corresponding values for `CC(=O)N1c2ccc(C(N)=O)cc2C(Nc2ccc(-c3cnns3)cc2)CC1C` (stereo not shown) [Compound 173, 1-Acetyl-2-methyl-4-{[4-(1,2,3-thiadiazol-5-yl)-phenyl]amino}-1,2,3,4-tetrahydroquinoline-6-carboxamide] are 323% and 158%.
Regarding `CNC(=O)c1ccc2c(c1)C(Nc1ccc(-c3cnns3)cc1)CC(C)N2C(C)=O` (stereo not shown) [Compound 174, 1-Acetyl-N,2-dimethyl-4-{[4-(1,2,3-thiadiazol-5-yl)-phenyl]amino}-1,2,3,4-tetrahydroquinoline-6-carboxamide], the activity at 3 µM in experiment [1] came out at 218%. The activity at 6 µM in experiment [2] is 163%.
As to `CC(=O)NC(=O)c1ccc2c(c1)C(Nc1ccc(N3CCOCC3)cc1)CC(C)N2C(C)=O` (stereo not shown) [Compound 175, N,1-diacetyl-2-methyl-4-[(4-morpholinophenyl)amino]-1,2,3,4-tetrahydroquinoline-6-carboxamide], the activity at 3 µM in experiment [1] turned out to be 270%. In experiment [2], the activity at 6 µM was 275%.
In the case of `CC(=O)N1c2ccc(C(=O)NC(C)C)cc2C(Nc2ccc(N3CCOCC3)cc2)CC1C` (stereo not shown) [Compound 176, 1-Acetyl-N-isopropyl-2-methyl-4-[(4-morpholinophenyl)-amino]-1,2,3,4-tetrahydroquinoline-6-carboxamide], in experiment [1], the activity at 3 µM was 325%. For the same molecule, in experiment [2], the activity at 6 µM amounted to 355%.
`CC(=O)N1c2ccc(C(=O)Nc3ccccn3)cc2C(Nc2ccc(N3CCOCC3)cc2)CC1C` (stereo not shown) [Compound 177, 1-Acetyl-2-methyl-4-[(4-morpholinophenyl)-amino]-N-(pyridin-2-yl)-1,2,3,4-tetrahydroquinoline-6-carboxamide]: in experiment [1], the activity at 3 µM came to 265%. The activity at 6 µM in experiment [2] was 353%.
For `CC(=O)N1c2ccc(C(=O)NC3CCCCC3)cc2C(Nc2ccc(N3CCOCC3)cc2)CC1C` (stereo not shown) [Compound 178, 1-Acetyl-N-cyclohexyl-2-methyl-4-[(4-morpholinophenyl)-amino]-1,2,3,4-tetrahydroquinoline-6-carboxamide] the same measures were 370% and 388%.
Take `CC(=O)N1c2ccc(C(=O)O)cc2C(Nc2cccc(N3CCOCC3)c2)CC1C` (stereo not shown) [Compound 179, 1-Acetyl-2-methyl-4-[(3-morpholinophenyl)-amino]-1,2,3,4-tetrahydroquinoline-6-carboxylic acid]: the activity at 3 µM in experiment [1] came out at 138%. Further, the activity at 6 µM in experiment [2] was 124%.
`CC(=O)N1c2ccc(C(N)=O)cc2C(Nc2cccc(N3CCOCC3)c2)CC1C` (stereo not shown) [Compound 181, 1-Acetyl-2-methyl-4-[(3-morpholinophenyl)amino]-1,2,3,4-tetrahydroquinoline-6-carboxamide]: the activity at 3 µM in experiment [1] stood at 162%. Also, the activity at 6 µM in experiment [2] turned out to be 382%.

Values taken from patent US9045423B2, “Prophylactic and/or therapeutic agent for anemia comprising tetrahydroquinoline compound as active ingredient” (KOWA COMPANY, LTD., priority 2009, dated 2015).
